Measurements: US10806793B2, “Mucosal delivery of therapeutic molecules, proteins, or particles coupled to ceramide lipids” (Children's Medical Center Corporation, priority 2008, dated 2020)

Legend:
[1] = test system: C12-GM1 transport to the TGN; test: Brefeldin effect on C12-GM1 transport; format: cell-based
[2] = Orskov et al., 1993; cited from earlier work

C[C@H]1CCC/C=C/[C@@H]2C[C@H](O)C[C@H]2[C@H](O)/C=C/C(=O)O1 [Brefeldin-1]
effect on C12-GM1 transport to the TGN [1]: inhibits C12-GM1 transport to the TGN

GLP1(7-36)amide: secreted form of GLP1 in which the carboxylic acid of Arg at position 36 has been amidated
potency in vivo [2]: equally potent

GLP1(7-37): secreted form of GLP1 that contains a C-terminal Gly residue
potency in vivo [2]: equally potent
